US20190246646A1 (priority 2016, published 2019)

How the values were obtained:
M. oryzae BOA102 [1] = conditions: for mycelium color / phenotype of the fungal colony: BOA102 exposed to single commercial compound, dual plate; for mycelium growth measured as colony diameter: Student T-test p<0.05
M. oryzae mycelium = conditions: compound added to fungal growth media; untreated black; cited from earlier work
M. oryzae BOA102 [2] = conditions: grown in the presence of Tricyclazole

Row | SMILES | mycelium color / phenotype of the fungal colony (M. oryzae BOA102 [1]) | mycelium growth measured as colony diameter (M. oryzae BOA102 [1]) | pigmentation of M. oryzae mycelium (M. oryzae mycelium) | color of the mycelium (DHN melanin inhibition phenotype) (M. oryzae BOA102 [2])
1 | CCO [ethanol] | do not induce appreciable phenotype/color variations | No effect | – | –
2 | CC(=O)OCCC(C)C [1-butanol-3-methyl-acetate] | do not induce appreciable phenotype/color variations | significant reduction | – | –
3 | Cc1ccc(C(=O)NC[C@@H](NC(=O)OCC(F)(F)F)C(C)C)cc1 [Tolprocab] | – | – | white | –
4 | Cc1cccc2sc3nncn3c12 [Tricyclazole] | – | – | orange | orange color
5 | CC(C)CO [1-propanol-2-methyl] | do not induce appreciable phenotype/color variations | significant reduction | – | –
6 | CC(C)CCO [1-butanol-3-methyl] | shift from black to white | significant reduction | – | –
